Among the data in patent US10899932B2, “Non-amphoteric, quaternisable and water-soluble polymers for modifying the surface charge of solid particles” (priority 2014, dated 2021) are Zeta potential values, retold here.

The nature of this data set: Zeta potential measurement of aqueous suspensions of powders (Coulter DELSA 440 SX). As to conditions: aqueous suspension, pH 4. Type of data set: physicochemical. An excerpt:
The zeta potential can be determined directly from the direction and velocity of migration of the dispersed particles in an electrical field, on the basis of the following relation:
[formula] • ζ=zeta potential (in mV) • ε=dielectric constant of the dispersion medium • v=electrophoretic migration velocity (in cm/s) • η=viscosity of the dispersion medium (poise, 1 poise=0.1 Pa·s) • E=field strength (in […]) • f=numerical factor (friction factor), dependent on the shape of the particles, their conductivity, and the size of the particles in comparison to the thickness of the diffuse double layer
The migration velocity here is measured, depending on the size of the particles under investigation, either by means of observation through a light microscope or, particularly in the case of relatively small particles, by means of laser correlation spectroscopy.
The zeta potential of the aqueous suspensions of boron nitride, silicon carbide, diamond, deltamethrin and azoxystrobin powders, all produced in analogy to the example above, was determined as follows. The measurement took place with a Coulter DELSA 440 SX instrument. […] This reversal of the original surface charge was verified for the inventive particles by the experimental measurements below.

`CC1(C)[C@H](C(=O)O[C@H](C#N)c2cccc(Oc3ccccc3)c2)[C@@H]1C=C(Br)Br` [CE7, Deltamethrin] registered a Zeta potential of −32 mV.
To `CO/C=C(/C(=O)OC)c1ccccc1Oc1cc(Oc2ccccc2C#N)ncn1` [CE8, Azoxystrobin] belongs −36 mV.
